Values of other authors, collected in US20190282513A1, “COMPOUND FOR USE IN RELIEF OF PAIN AND METHOD TO PRODUCE THEREOF” (priority 2018, published 2019).

Tests used:
[1] = taken orally
[2] = compared with ibuprofen

Compound: C=C(C)[C@@H]1CCC(C)=C[C@H]1c1c(O)cc(CCCCC)cc1O [CBD, cannabidiol]
- anti-inflammatory analgesic effect in cancer-related pain: effective anti-inflammatory analgesic
- treatment of chronic pain [1]: effectively treated chronic pain

Compound: C/C=C(/C=O)[C@@H](CC=O)CC(=O)OCCc1ccc(O)cc1 [oleocanthal]
- anti-inflammatory properties [2]: anti-inflammatory properties similar to ibuprofen
